In patent US7601884B2, “Method of producing cloned animals by demecolcine treatment” (KNU - Industry Cooperation Foundation, priority 2007, dated 2009):

Columns and labels:
[1] = test system: recipient pigs transferred with SCNT embryos; experiment: Delivery rate and number of pigs born alive after in vivo transfer of DEM-treated SCNT embryos; set-up: species or system pig
From the text: For in vivo transfer of the NT embryos, a naturally-estrous gilt was used as a recipient animal. On the day of the production of the NT embryos, a standing estrus pig was subjected to inhalation anesthesia, and using a common method, cut open to expose the ovaries and oviducts. After confirming the presence of follicle, ovulation and corpus luteum in the ovary, 90 to 160 SCNT embryos activated and treated with DEM were transferred into the oviduct by fimbriae. The recipient pig into which the NT embryos were transferred was monitored to confirm whether or not it was estrus, and a pregnancy test was taken every two weeks, 4 weeks after transfer of the fertilized embryos. When the recipient pig gave birth to live, SCNT embryo-derived offspring, its period of pregnancy, the number of live offspring, their weight, and morphological abnormalities found in any of the live offspring were monitored and recorded.
The effect of DEM treatment to the SCNT embryos on delivery rate and the number of pigs born alive was surveyed. Each group of SCNT embryos (107-160/a recipient pig), wherein one was treated with DEM according to Exemplary Embodiment 4 and the other (102-165/a recipient pig) was not treated with DEM, was transferred into 8 to 10 recipient pigs monitored to see whether or not they were estrus. Starting 4 weeks after transfer of the fertilized embryos, they were given pregnancy tests every 2 weeks. When they gave birth to live, SCNT embryo-derived offspring, the period of pregnancy, the number of live offspring, their weight and any morphological abnormalities were monitored and recorded. Further, the number of recipient pigs having live offspring and the number of pigs born alive in a litter were surveyed.

SCNT porcine embryos = experiment: In vitro development of SCNT porcine embryos after DEM treatment; format: cell-based, pig
Description: (§1) After the activation stimulation, the activated embryos were incubated in NCSU-23 culture medium containing 0.4 μg/ml demecolcine (DEM) (Sigma-Aldrich Corp., USA) for 4 hours.
With the same method as in Exemplary Embodiment <3-4>, the fused NT embryos were electrically activated, but not treated with DEM.
After activation stimulation, the SCNT embryos were cultured in in vitro culture medium for 6 days in an atmosphere of 5% CO2, 5% O2 and 90% N2 gas.
(§2) The SCNT embryos of Exemplary Embodiment 3 and Comparative Example 1 were cultured in vitro with an atmosphere of 5% CO2, 5% O2 and 90% N2 gases. On the second and sixth days of the in vitro culture, their division rates and development to blastocysts were monitored. Further, the blastocysts were stained with bis-benzimide to estimate the number of cells under a fluorescent microscope.

SCNT embryos [2] = experiment: Production of pseudo-pronuclei of SCNT embryos after DEM treatment; format: cell-based, pig; details: 0.4 μg/ml DEM for 4 hours
Description: as §1
The oocytes treated with DEM of Exemplary Embodiment 3 or the oocytes of Comparative Example 1 were cultured in vitro for 7 hours, activated, fixed for 11 hours, and stained to estimate the number of pseudo-pronuclei and their production rate. The fixation of the oocytes was performed using a whole-mount method. 10 to 20 oocytes were placed on a slide glass and covered with a cover glass. The oocytes were fixed in a fixative (25% acetic acid in ethanol) at 33° C. for 10 to 20 minutes. The fixed oocytes were stained with 1% orcein (in 45% acetic acid solution) and then the pseudo pronuclei were observed by a phase microscope.

SCNT embryos [3] = experiment: In vitro development of SCNT embryos according to time of DEM treatment; format: cell-based, pig
Description: as §2
Change in in vitro development of SCNT embryos depending on the time of DEM treatment was surveyed. The SCNT embryos activated according to Exemplary Embodiment <3-4> were incubated in NCSU-23 culture medium containing 0.4 μg/ml DEM for 2, 4 and 6 hours, respectively, and cultured in vitro by the same method as described in Experimental Example 1, followed by observation of their development to blastocysts.

[4] = recipient pig transferred with SCNT embryos treated with DEM
[5] = 0.4 μg/ml DEM for 2 hrs, of N=141
[6] = 0.4 μg/ml DEM for 4 hrs, of N=142
[7] = 0.4 μg/ml DEM for 6 hrs, of N=142

## CN[C@H]1CCc2cc(OC)c(OC)c(OC)c2-c2ccc(OC)c(=O)cc21 [DEM, demecolcine]
[1]; SCNT embryos treated with DEM
  No. of Pigs/Litter: 3.0
[1]; SCNT embryos treated with DEM, 8 recipient pigs
  No. of Pigs Born Alive: 12
[1]; SCNT embryos treated with DEM, 107-160 per recipient pig
  Recipient Pigs Delivered(%): 50.0%
[1]; SCNT embryos treated with DEM, 107-160 per recipient pig, of N=8 recipients
  No. of Recipient Pigs Delivered: 4
[1]; [4]
  delivery rate versus Comparative Example 1 (no DEM): significantly increased
  number of pigs born alive in a litter versus Comparative Example 1 (no DEM): significantly increased
SCNT porcine embryos; 0.4 μg/ml DEM for 4 hours after activation, second day of in vitro culture
  ≧2-Cell(%): 76.8%
SCNT porcine embryos; 0.4 μg/ml DEM for 4 hours after activation, second day of in vitro culture, of N=187
  ≧2-Cell, number of embryos: 144
SCNT porcine embryos; 0.4 μg/ml DEM for 4 hours after activation, sixth day of in vitro culture
  Blastocyst(%): 27.3%
SCNT porcine embryos; 0.4 μg/ml DEM for 4 hours after activation, sixth day of in vitro culture, of N=187
  Blastocyst, number of embryos: 51
SCNT porcine embryos; 0.4 μg/ml DEM for 4 hours, bis-benzimide staining
  No. of Cells/Blastocysts: 39.5
SCNT porcine embryos; embryos treated with DEM, then cultured in vitro
  development to blastocysts versus Comparative Example 1 (not treated with DEM): significantly improved
SCNT embryos [2]
  1PPN (one pseudo pronucleus) (%): 83.7%
  Multi-PPN (2 or more pseudo pronuclei) (%): 9.3%
  Others(%): 7.0%
SCNT embryos [2]; of N=43
  1PPN (one pseudo pronucleus), number of embryos: 36
  Multi-PPN (2 or more pseudo pronuclei), number of embryos: 4
  Others, number of embryos: 3
SCNT embryos [3]; 0.4 μg/ml DEM for 2, 4 and 6 hours
  change in in vitro development of the SCNT embryos according to the time of DEM treatment: wasn't a significant change
SCNT embryos [3]; 0.4 μg/ml DEM for 2 hrs
  Blastocysts (%): 24.8%
  No. of Cells/Blastocysts: 35.3 ± 2.1
  ≧2 cells (%): 84.4%
SCNT embryos [3]; [5]
  Blastocysts, number of embryos: 35
  ≧2 cells, number of embryos: 119
SCNT embryos [3]; 0.4 μg/ml DEM for 4 hrs
  Blastocysts (%): 29.6%
  No. of Cells/Blastocysts: 35.2 ± 1.8
  ≧2 cells (%): 80.3%
SCNT embryos [3]; [6]
  Blastocysts, number of embryos: 42
  ≧2 cells, number of embryos: 114
SCNT embryos [3]; 0.4 μg/ml DEM for 6 hrs
  Blastocysts (%): 25.4%
  No. of Cells/Blastocysts: 30.8 ± 2.7
  ≧2 cells (%): 78.2%
SCNT embryos [3]; [7]
  Blastocysts, number of embryos: 36
  ≧2 cells, number of embryos: 111
SCNT embryos [3]; 4-hour incubation period with 0.4 μg/ml DEM
  in vitro development of SCNT embryos, comparison of treatment times: highest level of growth
